Assay results published in US9765105B2, “Macrolide compound” (Pulike Biological Engineering, Inc., priority 2013, dated 2017).

Legend:
Assay in all cases: in vitro susceptibility, MIC by mini broth dilution
Format in all cases: cell-based
[1] = test system: Pasteurella multocida CVCC399; details: strain CVCC399
Outline: (§1)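 MICs determined by mini broth dilution following NCCLS standards, using two-fold serial dilutions of compound in DMSO across 11 gradients, in duplicate rows. Strains were revived and subcultured at 35 °C for 20 h. Bacterial suspension was diluted 1:200 in liquid medium.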

[2] = test system: Actinobacillus pleuropneumoniae CVCC262; details: strain CVCC262
Outline: as §1

Haemophilus parasuis = test system: Haemophilus parasuis
Outline: as §1

[3] = test system: Streptococcus equines CVCC556; details: strain CVCC556
Outline: as §1

[4] = test system: Staphylococcus aureus CVCC26003; details: strain CVCC26003
Outline: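 MICs were determined by mini broth dilution under NCCLS standards in CAMHB, using revived S. aureus CVCC26003 subcultured 20 h at 35° C. Compounds were two-fold serially diluted in DMSO across 11 wells, with duplicate rows. Bacterial suspension was diluted 1:200 in medium before inoculation.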

| SMILES | MIC values, Pasteurella multocida CVCC399 [1] [ug/mi] | MIC values, Actinobacillus pleuropneumoniae CVCC262 [2] [ug/mi] | MIC values, Haemophilus parasuis (Haemophilus parasuis) | MIC values, Streptococcus equines CVCC556 [3] [ug/mi] | MIC values, Staphylococcus aureus CVCC26003 [4] [ug/mi] |
| --- | --- | --- | --- | --- | --- |
| CC[C@H]1OC(=O)[C@H](C)[C@@H](O[C@H]2C[C@@](C)(OC)[C@](O)(CNCCc3c[nH]c4ccccc34)[C@H](C)O2)[C@H](C)[C@@H](O[C@@H]2O[C@H](C)C[C@H](N(C)C)[C@H]2O)[C@](C)(O)C[C@@H](C)NC[C@H](C)[C@@H](O)[C@]1(C)O [syzx-74, (2R,3S,4R,5S,8R,10R,11R,12S,13S,14R)-13-[(2,6-dideoxy-3-C-methyl-3-O-methyl-4-C-{[2-(1H-indol-3-yl)-ethylamino]-methyl}-α-L-ribopyranosyl)oxy]-2-ethyl-3,4,10-trihydroxy-3,5,8,10,12,14-hexamethyl-11-[[3,4,6-trideoxy-3-(dimethylamino)-β-D-xylo-hexopyranosy]oxy]-1-oxa-7-azacyclopentadecan-15-one] | 1 | 1 | 2 ug/mi | 0.5 | 1 |
| CC[C@H]1OC(=O)[C@H](C)[C@@H](O[C@H]2C[C@@](C)(OC)[C@](O)(CNCCNC)[C@H](C)O2)[C@H](C)[C@@H](O[C@@H]2O[C@H](C)C[C@H](N(C)C)[C@H]2O)[C@](C)(O)C[C@@H](C)NC[C@H](C)[C@@H](O)[C@]1(C)O [syzx-29] | 2 | 16 | 0.5 ug/mi | 0.5 | 1 |
| CCCN1C[C@H](C)[C@@H](O)[C@](C)(O)[C@@H](CC)OC(=O)[C@H](C)[C@@H](O[C@H]2C[C@@](C)(OC)[C@](O)(CNCCCO)[C@H](C)O2)[C@H](C)[C@@H](O[C@@H]2O[C@H](C)C[C@H](N(C)C)[C@H]2O)[C@](C)(O)C[C@H]1C [syzx-146] | 0.5 | 0.25 | 0.25 ug/mi | 0.25 | 0.25 |
| CCCN1C[C@H](C)[C@@H](O)[C@](C)(O)[C@@H](CC)OC(=O)[C@H](C)[C@@H](O[C@H]2C[C@@](C)(OC)[C@](O)(CNCc3cccnc3)[C@H](C)O2)[C@H](C)[C@@H](O[C@@H]2O[C@H](C)C[C@H](N(C)C)[C@H]2O)[C@](C)(O)C[C@H]1C [syzx-121] | 0.5 | 0.25 | 0.25 ug/mi | 0.5 | 0.25 |
| CC[C@H]1OC(=O)[C@H](C)[C@@H](O[C@H]2C[C@@](C)(OC)[C@](O)(C=NNc3ccccc3)[C@H](C)O2)[C@H](C)[C@@H](O[C@@H]2O[C@H](C)C[C@H](N(C)C)[C@H]2O)[C@](C)(O)C[C@@H](C)NC[C@H](C)[C@@H](O)[C@]1(C)O [syzx-73, (2R,3S,4R,5S,8R,10R,11R,12S,13S,14R)-13-[(2,6-dideoxy-3-C-methyl-3-O-methyl-4-C-[(phenylhydrazono)-methyl]-α-L-ribopyranosyl)oxy]-2-ethyl-3,4,10-trihydroxy-3,5,8,10,12,14-hexamethyl-11-[[3,4,6-trideoxy-3-(dimethylamino)-β-D-xylo-hexopyranosy]oxy]-1-oxa-7-azacyclopentadecan-15-one] | 2 | 1 | 1 ug/mi | 0.5 | 1 |
| CCC1OC(=O)C(C)C(OC2CC(C)(OC)C(O)(CNCCCNC3CCCCC3)C(C)O2)C(C)C(OC2OC(C)CC(N(C)C)C2O)C(C)(O)CC(C)NCC(C)C(O)C1(C)O [syzx-60, (2R,3S,4R,5S,8R,10R,11R,12S,13S,14R)-13-[(2,6-dideoxy-3-C-methyl-3-O-methyl-4-C-[[(3-cyclohexylamino)propylamino]-methyl]-α-L-ribopyranosyl)oxy]-2-ethyl-3,4,10-trihydroxy-3,5,8,10,12,14-hexamethyl-11-[[3,4,6-trideoxy-3-(dimethylamino)-β-D-xylo-hexopyranosy]oxy]-1-oxa-7-azacyclopentadecan-15-one] | 2 | 8 | 1 ug/mi | 2 | 1 |
| CC[C@H]1OC(=O)[C@H](C)[C@@H](O[C@H]2C[C@@](C)(OC)[C@](O)(CNCCCO)[C@H](C)O2)[C@H](C)[C@@H](O[C@@H]2O[C@H](C)C[C@H](N(C)C)[C@H]2O)[C@](C)(O)C[C@@H](C)NC[C@H](C)[C@@H](O)[C@]1(C)O [syzx-46, (2R,3S,4R,5S,8R,10R,11R,12S,13S,14R)-13-[(2,6-dideoxy-3-C-methyl-3-O-methyl-4-C-[(3-hydroxy-propylamino)-methyl]-α-L-ribopyranosyl)oxy]-2-ethyl-3,4,10-trihydroxy-3,5,8,10,12,14-hexamethyl-11-[[3,4,6-trideoxy-3-(dimethylamino)-β-D-xylo-hexopyranosy]oxy]-1-oxa-7-azacyclopentadecan-15-one] | 4 | 32 | ≦0.25 ug/mi | 2 | 1 |
| CCCN1C[C@H](C)[C@@H](O)[C@](C)(O)[C@@H](CC)OC(=O)[C@H](C)[C@@H](O[C@H]2C[C@@](C)(OC)[C@](O)(CNc3ccnc(Cl)c3)[C@H](C)O2)[C@H](C)[C@@H](O[C@@H]2O[C@H](C)C[C@H](N(C)C)[C@H]2O)[C@](C)(O)C[C@H]1C [syzx-138] | 8 | 2 | 2 ug/mi | 0.5 | 2 |

Second part, the compound after the results:

| MIC values, Pasteurella multocida CVCC399 [1] [ug/mi] | MIC values, Actinobacillus pleuropneumoniae CVCC262 [2] [ug/mi] | MIC values, Haemophilus parasuis (Haemophilus parasuis) | MIC values, Streptococcus equines CVCC556 [3] [ug/mi] | MIC values, Staphylococcus aureus CVCC26003 [4] [ug/mi] | SMILES |
| --- | --- | --- | --- | --- | --- |
| 4 | 2 | 4 ug/mi | 0.5 | 4 | CCCN1C[C@H](C)[C@@H](O)[C@](C)(O)[C@@H](CC)OC(=O)[C@H](C)[C@@H](O[C@H]2C[C@@](C)(OC)[C@](O)(CNc3ccc(C)o3)[C@H](C)O2)[C@H](C)[C@@H](O[C@@H]2O[C@H](C)C[C@H](N(C)C)[C@H]2O)[C@](C)(O)C[C@H]1C [syzx-178] |
| 0.5 | 0.25 | 0.25 ug/mi | 0.25 | 0.25 | CCCN1C[C@H](C)[C@@H](O)[C@](C)(O)[C@@H](CC)OC(=O)[C@H](C)[C@@H](O[C@H]2C[C@@](C)(OC)[C@](O)(CNc3ccc(Cl)cc3Cl)[C@H](C)O2)[C@H](C)[C@@H](O[C@@H]2O[C@H](C)C[C@H](N(C)C)[C@H]2O)[C@](C)(O)C[C@H]1C [syzx-231] |
| 16 | 4 | 4 ug/mi | 0.25 | 4 | CCCN1C[C@H](C)[C@@H](O)[C@](C)(O)[C@@H](CC)OC(=O)[C@H](C)[C@@H](O[C@H]2C[C@@](C)(OC)[C@](O)(CNc3ccc(C)cc3C)[C@H](C)O2)[C@H](C)[C@@H](O[C@@H]2O[C@H](C)C[C@H](N(C)C)[C@H]2O)[C@](C)(O)C[C@H]1C [syzx-229] |
| 4 | 0.5 | 0.5 ug/mi | 0.5 | 1 | CCCN1C[C@H](C)[C@@H](O)[C@](C)(O)[C@@H](CC)OC(=O)[C@H](C)[C@@H](O[C@H]2C[C@@](C)(OC)[C@](O)(CNOCc3ccccc3)[C@H](C)O2)[C@H](C)[C@@H](O[C@@H]2O[C@H](C)C[C@H](N(C)C)[C@H]2O)[C@](C)(O)C[C@H]1C [syzx-182] |
| 1 | 0.5 | 0.5 ug/mi | 0.25 | 0.5 | CCCN1C[C@H](C)[C@@H](O)[C@](C)(O)[C@@H](CC)OC(=O)[C@H](C)[C@@H](O[C@H]2C[C@@](C)(OC)[C@](O)(CNCCCN3CCOCC3)[C@H](C)O2)[C@H](C)[C@@H](O[C@@H]2O[C@H](C)C[C@H](N(C)C)[C@H]2O)[C@](C)(O)C[C@H]1C [syzx-188] |
| 2 | 1 | 0.5 ug/mi | 0.25 | 0.5 | CCCN1C[C@H](C)[C@@H](O)[C@](C)(O)[C@@H](CC)OC(=O)[C@H](C)[C@@H](O[C@H]2C[C@@](C)(OC)[C@](O)(CNC(C)CC(=O)O)[C@H](C)O2)[C@H](C)[C@@H](O[C@@H]2O[C@H](C)C[C@H](N(C)C)[C@H]2O)[C@](C)(O)C[C@H]1C (stereo partly shown) [syzx-150] |
